Laboratory results from PMC10480161, “Identification of potent and selective N-myristoyltransferase inhibitors of Plasmodium vivax liver stage hypnozoites and schizonts” (Nature Communications, 2023).
Where “and” joins values, the source holds several entries; their conditions need not be identical. Equal entries are not always repeated.

How the values were obtained:
[1] = system: primary human hepatocytes; assay: Nuclear counts (DAPI) in P. vivax-infected primary hepatocytes as measure of toxicity; assay type: cell-based; conditions: two technical replicates
Procedure: Accordingly, we applied dose–response curves of all the tested NMTs on parasite isolates 2 and 3 over concentrations up to 20 µM (Fig. 5c, d, Source Data file). […] Nuclei were counted in each well using DAPI staining as a measure of toxicity (Supplementary Fig. 86, Supplementary Source data). We used the phosphatidylinositol 4-kinase inhibitor (PI4Ki), MMV390048, as a positive control for eliminating schizonts[37],[38].
Plasmodium vivax liver stage assays were performed as described previously. Cryopreserved primary human hepatocytes (Cat No. F00995-P) and hepatocyte culture medium (HCM) (InVitroGroTM CP Medium) were obtained from Bioreclamation IVT, Inc., (Baltimore, MD, USA). Briefly, we seeded 384-well plates with primary hepatocytes from a single donor lot at a density of 25,000 cells per well. We then infected the hepatocytes with 14,000 freshly hand-dissected sporozoites per well. Cells were exposed to the compounds at indicated concentrations from day 5 post-infection. We used Pi4K inhibitor MMV390048, at 20 µM, as a positive control to eliminate P. vivax liver schizonts. We then proceeded to feed cultures every day, replacing the compounds until day 8 post-infection. Cells were fixed with 4% PFA, permeabilized with 1% Triton X-100, blocked with 2% BSA, and stained with DAPI and PvUIS4 antibodies to detect schizonts and hypnozoites forms by confocal microscopy. […] DAPI was diluted 1:2000. The images were processed, analyzed and outlier cells were removed using IMARIS (Bitplane Inc.) image analysis software.
Supplementary Fig. 86. […] Nuclear […]
counts, normalized to DMSO controls, for NMT inhibitors across a dose response. Counts were ob-tained using DAPI staining from the P. vivax-infected wells quantified in Fig. 5d. Error bars represent the standard deviation of two technical replicates.
(1 picture or pasted object on this page, not shown here)

P. falciparum NF54 = assay: P. falciparum blood stage assay (SYBR Green); assay type: cell-based, Plasmodium falciparum; conditions: 72 h; for P. falciparum blood-stage development (parasite DNA level fluorescence): untreated = 129; for IC50: Plasmodium falciparum, NF54, ring-stage parasites, relative IC50
Procedure: To assess whether any of the PvNMTis developed here could qualify as TCP-1 candidates, we assessed the effect of each compound on blood-stage P. falciparum parasites, as there is currently no well-established in vitro platform for screening P. vivax blood-stage parasites. Synchronized P. falciparum NF54 ring-stage parasites were treated for 72 h with each compound at various concentrations, ranging from 0.625 µM to 10 µM, and parasite DNA replication was measured using a fluorescent DNA binding dye (SYBR Green).
Sorbitol-synchronized P. falciparum NF54 ring-stage parasites were cultured at a parasitemia of 0.5% and hematocrit of 1.5% in a 96-well microtiter plate. Parasites were treated with each NMT inhibitor compound at 0.625, 1.25, 2.5, 5, or 10 µM for 72 h. Direct lysis of the blood cells to release the parasite DNA was performed by adding 100 μl of LBS buffer containing SYBR green I DNA binding dye to each well. […] ICEstimator regression analysis (http://www.antimalarial-icestimator.net/) was used to obtain relative IC50 values for each compound.

[2] = HepG2 cytotoxicity assay (Live/Dead staining); conditions: human, HepG2 cells
In short: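 HepG2 cells (5000/well) treated with compounds at 1 to 20 µM, re-dosed with fresh compound every 24 h. Viability scored at 72 h by calcein-AM/ethidium homodimer (1 µM each, 10 min, 37 °C) live/dead staining under fluorescence microscopy.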

| SMILES | Nucleus counts per well ([1]; 1 uM) | Nucleus counts per well ([1]; 2.5uM) | Nucleus counts per well ([1]; 5 uM) | Nucleus counts per well ([1]; 10uM) | Nucleus counts per well ([1]; 20uM, P. vivax-infected wells) | P. falciparum blood-stage development (parasite DNA level fluorescence) (P. falciparum NF54; 0.625 uM) | P. falciparum blood-stage development (parasite DNA level fluorescence) (P. falciparum NF54; 1.25 uM) | P. falciparum blood-stage development (parasite DNA level fluorescence) (P. falciparum NF54; 2.5 uM) | P. falciparum blood-stage development (parasite DNA level fluorescence) (P. falciparum NF54; 5 uM) | P. falciparum blood-stage development (parasite DNA level fluorescence) (P. falciparum NF54; 10 uM) | IC50 (P. falciparum NF54) [nM] | IC50 at 48 h [2] [nM] |
| --- | --- | --- | --- | --- | --- | --- | --- | --- | --- | --- | --- | --- |
| Cc1nn(C)c(C)c1CCOc1cc(F)ccc1-c1cccc(OCCN(C)C)c1 [Compound 26c] | 16190 per well and 15050 per well | 15160 per well and 15950 per well | 16180 per well and 14300 per well | 14610 per well and 15250 per well | 12520 per well and 13160 per well | 127.1 | 126.9 | 117.8 | 108.1 | 97.66 | 820 | > 20000 |
| Cc1n[nH]c(C)c1CCOc1cc(F)ccc1-c1cccc(OCCN(C)C)c1 [Compound 26i] | 15030 per well and 14960 per well | 13600 per well and 14280 per well | 12980 per well and 13510 per well | 14570 per well and 13510 per well | 12860 per well and 13500 per well | 109.6 | 112.9 | 111.2 | 93.25 | 85.5 | 400 | > 20000 |
| c1cncc(CCOc2ccc3ccccc3c2-c2ccnc(N3CCNCC3)c2)c1 [Compound 30c] | 12390 per well and 13530 per well | 13960 per well and 13570 per well | 14060 per well and 13800 per well | 13530 per well and 13880 per well | 14090 per well and 14800 per well | 126.9 | 124 | 114.3 | 101.4 | 93.99 | 680 | > 20000 |
